Laboratory results: patent US20040097728A1, “Method for producing anellated tetrahydro-{1h}-triazoles” (priority 2000, published 2004)

Experiments:
ABUTH = test: greenhouse herbicidal action, post-emergence treatment; assay type: in vivo, velvet leaf; conditions: post-emergence method, application rates of 7.8 and 3.9 g of a.s./ha
Description: (§1) The seeds of the test plants were sown separately for each species. For the post-emergence treatment, the test plants were first grown to a height of 3 to 15 cm, depending on the plant habit, and then treated with the active compounds which had been suspened or emulsified in water. To this end, the test plants were either sown directly and grown in the same containers, or they were first grown separately as seedlings and transplanted into the test containers a few days prior to the treatment. The application rates for the post-emergence treatments were 62.5, 31.2, 15.6, 7.8 and 3.9 g of a.s./ha. Depending on the species, the plants were kept at 10-25° C. or 20-35° C. The test period extended over 2 to 4 weeks. During this time, the plants were tended, and their response to the individual treatments was evaluated. Evaluation was carried out using a scale from 0 to 100. 100 means no emergence of the plants, or complete destruction of at least the above-ground parts, and O means no damage, or normal course of growth. The plants used in the greenhouse experiments were of the following species: [table]

PHBPU = test: as above; assay type: in vivo, common morning glory; conditions: post-emergence method, application rates of 7.8 and 3.9 g of a.s./ha
Description: as §1

CHEAL = test: as above; assay type: in vivo, lambsquarters (goosefoot); conditions: post-emergence method, application rates of 7.8 and 3.9 g of a.s./ha
Description: as §1

AMARE = test: as above; assay type: in vivo, common amaranth; conditions: post-emergence method, application rates of 7.8 and 3.9 g of a.s./ha
Description: as §1

## 2-[4-Chloro-2-fluoro-5-(2-propynyloxy)phenyl]-3-thiotetrahydro-1H-(1,2,4)triazolo[1,2-c][1,3,4]oxadiazin-1-one [Example 5]
ABUTH
  herbicidal activity against ABUTH: very good
PHBPU
  herbicidal activity against PHPBU: very good
CHEAL
  herbicidal activity against CHEAL: very good
AMARE
  herbicidal activity against AMARE: very good

## C#CCOc1cc(-n2c(=O)n3n(c2=S)COCC3)c(F)cc1C#N [Example 75, 2-[4-Cyano-2-fluoro-5-(propargyloxy)phenyl]-3-thioxotetrahydro-1H-[1,2,4]-triazolo-[1,2-c][1,3,4]-oxadiazin-1-one]
other
  melting point: 226 to 227 °C
